Experimental data taken from patent US11034650B2, “Compounds useful for treating a Mannheimia haemolytica or Histophilus somni infection” (Intervet Inc., priority 2016, dated 2021).
Converted amounts (≈) assume the structure as drawn.

How the values were obtained:
Format in all cases: cell-based
[1] = system: Pasteurella multocida PM 6267 (P 2225 (L386), reference strain, mouse infection strain); experiment: MIC, broth-microdilution (CLSI VET01-A4), strain PM 6267; conditions: Pasteurella multocida strain PM 6267, broth-microdilution; unit assumed
In short: (§1)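 MIC is the lowest compound concentration showing no visible growth by eye, read from doubling-dilution microdilution trays. Method followed CLSI VET01-A4, with interpretation under CLSI VET01-S3.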

[2] = system: Pasteurella multocida PM 10775 (080130003051, BRD field isolate); experiment: MIC, broth-microdilution (CLSI VET01-A4), strain PM 10775; conditions: Pasteurella multocida strain PM 10775, broth-microdilution; unit assumed
In short: as §1

[3] = system: Mannheimia haemolytica MH 12587 (1071, BRD field isolate, macrolide-resistance: erm+, E+); experiment: MIC, broth-microdilution (CLSI VET01-A4), strain MH 12587; conditions: Mannheimia haemolytica strain MH 12587, broth-microdilution; unit assumed
In short: as §1

[4] = system: Mannheimia haemolytica MH 10720 (154, BRD field isolate); experiment: MIC, broth-microdilution (CLSI VET01-A4), strain MH 10720; conditions: Mannheimia haemolytica strain MH 10720, broth-microdilution; unit assumed
In short: as §1

[5] = system: Mannheimia haemolytica MH 6374 (ATCC 33396, reference strain); experiment: MIC, broth-microdilution (CLSI VET01-A4), strain MH 6374; conditions: Mannheimia haemolytica strain MH 6374, broth-microdilution; unit assumed
In short: as §1

[6] = system: Mannheimia haemolytica MH 13093 (XB0472-6014.1, BRD field isolate); experiment: MIC, broth-microdilution (CLSI VET01-A4), strain MH 13093; conditions: Mannheimia haemolytica strain MH 13093, broth-microdilution; unit assumed
In short: as §1

[7] = system: Pasteurella multocida PM 12080 (IV102277-0093, BRD field isolate); experiment: MIC, broth-microdilution (CLSI VET01-A4), strain PM 12080; conditions: Pasteurella multocida strain PM 12080, broth-microdilution; unit assumed
In short: as §1

[8] = system: Mannheimia haemolytica MH 6357 (M7/2, reference strain, cattle infection strain); experiment: MIC, broth-microdilution (CLSI VET01-A4), strain MH 6357; conditions: Mannheimia haemolytica strain MH 6357, broth-microdilution; unit assumed
In short: as §1

[9] = system: Mannheimia haemolytica MH 13065 (XB0446-6003.9, BRD field isolate); experiment: MIC, broth-microdilution (CLSI VET01-A4), strain MH 13065; conditions: Mannheimia haemolytica strain MH 13065, broth-microdilution; unit assumed
In short: as §1

[10] = system: Pasteurella multocida PM 6391 (ATCC 43137, reference strain); experiment: MIC, broth-microdilution (CLSI VET01-A4), strain PM 6391; conditions: Pasteurella multocida strain PM 6391, broth-microdilution; unit assumed
Method: For example, representative compounds were tested against ***, Mannheimia haemolytica and Pasteurella multocida, using the conventional broth-dilution assay.
The Minimum inhibitory concentrations (MIC) of compounds according to the invention for a number of veterinary bacterial pathogens were determined by the broth-microdilution method according to CLSI document VET01-A4.
Microdilution trays containing a doubling dilution series of the test compound were used for the tests. The MIC results were interpreted according to the CLSI documents VET01-S3. The lowest concentration of compound at which no visible growth (i.e. no turbidity) detected by the unaided eye was recorded as the MIC.

SMILES	MIC PM 6267 [1] [µg/mL]	MIC PM 10775 [2] [µg/mL]	MIC MH 12587 [3] [µg/mL]	MIC MH 10720 [4] [µg/mL]	MIC MH 6374 [5] [µg/mL]	MIC MH 13093 [6] [µg/mL]	MIC PM 12080 [7] [µg/mL]	MIC MH 6357 [8] [µg/mL]	MIC MH 13065 [9] [µg/mL]	MIC PM 6391 [10] [µg/mL]
CCCNCc1ccc(C#Cc2ccc(C(=O)N[C@H](C(=O)NO)C(C)(C)S(C)(=O)=O)cc2)cc1 [Compound 265]	≤ 0.1	≤ 0.1	6.3 (≈ 13 µM)	0.8 (≈ 1.65 µM)	6.3 (≈ 13 µM)	3.1 (≈ 6.38 µM)	0.4 (≈ 0.824 µM)	6.3 (≈ 13 µM)	3.1 (≈ 6.38 µM)	0.8 (≈ 1.65 µM)
CC(C)(O)[C@H](NC(=O)c1ccc(C#Cc2ccc(CNCc3ccncc3)nc2)cc1)C(=O)NO [Compound 329]	0.8 (≈ 1.69 µM)	≤ 0.1	3.1 (≈ 6.55 µM)	≤ 0.1	1.6 (≈ 3.38 µM)	1.6 (≈ 3.38 µM)	0.4 (≈ 0.845 µM)	0.8 (≈ 1.69 µM)	0.8 (≈ 1.69 µM)	0.4 (≈ 0.845 µM)
COCCNCc1ccc(C#Cc2ccc(C(=O)N[C@H](C(=O)NO)C(C)(C)O)cc2)cn1 [Compound 325]	1.6 (≈ 3.63 µM)	≤ 0.1	3.1 (≈ 7.04 µM)	0.4 (≈ 0.908 µM)	1.6 (≈ 3.63 µM)	3.1 (≈ 7.04 µM)	0.8 (≈ 1.82 µM)	0.8 (≈ 1.82 µM)	1.6 (≈ 3.63 µM)	0.8 (≈ 1.82 µM)
CON=C(C)[C@H](NC(=O)c1ccc(C#Cc2ccc(CNCc3ccc(OC)cc3)cc2)cc1)C(=O)NO [Compound 383]	6.3 (≈ 12.2 µM)	0.8 (≈ 1.55 µM)	0.4 (≈ 0.777 µM)	0.8 (≈ 1.55 µM)	1.6 (≈ 3.11 µM)	1.6 (≈ 3.11 µM)	0.4 (≈ 0.777 µM)	0.8 (≈ 1.55 µM)	1.6 (≈ 3.11 µM)	≤ 0.1
CC(C)([C@H](NC(=O)c1ccc(C#Cc2ccc(CNCc3nccs3)nc2)cc1)C(=O)NO)S(C)(=O)=O [Compound 374]	0.2 (≈ 0.369 µM)	≤ 0.1	3.1 (≈ 5.72 µM)	0.4 (≈ 0.738 µM)	0.8 (≈ 1.48 µM)	3.1 (≈ 5.72 µM)	≤ 0.1	0.8 (≈ 1.48 µM)	1.6 (≈ 2.95 µM)	0.2 (≈ 0.369 µM)
CC(C)([C@H](NC(=O)c1ccc(C#Cc2ccc(CN3CCOCC3)cc2)cc1)C(=O)NO)S(C)(=O)=O [Compound 258]	≤ 0.1	≤ 0.1	1.6 (≈ 3.12 µM)	0.2 (≈ 0.389 µM)	1.6 (≈ 3.12 µM)	1.6 (≈ 3.12 µM)	≤ 0.1	1.6 (≈ 3.12 µM)	0.8 (≈ 1.56 µM)	≤ 0.1
COc1ccc(CNCc2ccc(C#Cc3ccc(C(=O)N[C@H](C(=O)NO)C(C)(C)S(C)(=O)=O)cc3)s2)cc1 [Compound 316]	0.2 (≈ 0.351 µM)	≤ 0.1	0.8 (≈ 1.4 µM)	≤ 0.1	0.2 (≈ 0.351 µM)	0.4 (≈ 0.702 µM)	≤ 0.1	≤ 0.1	0.2 (≈ 0.351 µM)	≤ 0.1
CSC(C)(C)[C@H](NC(=O)c1ccc(C#Cc2ccc(CN3CCCC3)cc2)cc1)C(=O)NO [Compound 242]	0.4 (≈ 0.859 µM)	0.2 (≈ 0.43 µM)	6.3 (≈ 13.5 µM)	0.8 (≈ 1.72 µM)	6.3 (≈ 13.5 µM)	3.1 (≈ 6.66 µM)	0.8 (≈ 1.72 µM)	6.3 (≈ 13.5 µM)	3.1 (≈ 6.66 µM)	1.6 (≈ 3.44 µM)
CC(C)(O)[C@H](NC(=O)c1ccc(C#Cc2ccc(CNCC(F)(F)F)nc2)cc1)C(=O)NO [Compound 333]	0.4 (≈ 0.861 µM)	≤ 0.1	1.6 (≈ 3.44 µM)	≤ 0.1	0.8 (≈ 1.72 µM)	1.6 (≈ 3.44 µM)	0.2 (≈ 0.431 µM)	0.4 (≈ 0.861 µM)	0.8 (≈ 1.72 µM)	0.4 (≈ 0.861 µM)
CC(=O)C(NC(=O)c1ccc(C#Cc2ccc(CNC3CCC3)cc2)cc1)C(=O)NO (stereo not drawn) [Compound 404]	25 (≈ 59.6 µM)	3.1 (≈ 7.39 µM)	3.1 (≈ 7.39 µM)	6.3 (≈ 15 µM)	12.5 (≈ 29.8 µM)	50 (≈ 119 µM)	1.6 (≈ 3.81 µM)	12.5 (≈ 29.8 µM)	25 (≈ 59.6 µM)	0.4 (≈ 0.954 µM)
CSC(C)(C)[C@H](NC(=O)c1ccc(C#Cc2ccc(CNCc3ccncc3)s2)cc1)C(=O)NO [Compound 364]	0.4 (≈ 0.786 µM)	≤ 0.1	1.6 (≈ 3.15 µM)	0.2 (≈ 0.393 µM)	0.8 (≈ 1.57 µM)	0.8 (≈ 1.57 µM)	≤ 0.1	0.8 (≈ 1.57 µM)	0.8 (≈ 1.57 µM)	0.4 (≈ 0.786 µM)
COc1ccc(CNCc2ccc(C#Cc3ccc(C(=O)N[C@H](C(=O)NO)C(C)(C)SC)cc3)s2)cc1 [Compound 305]	0.8 (≈ 1.49 µM)	≤ 0.1	3.1 (≈ 5.77 µM)	0.2 (≈ 0.372 µM)	0.8 (≈ 1.49 µM)	1.6 (≈ 2.98 µM)	0.4 (≈ 0.744 µM)	0.8 (≈ 1.49 µM)	0.8 (≈ 1.49 µM)	0.4 (≈ 0.744 µM)
CC(C)(O)[C@H](NC(=O)c1ccc(C#Cc2ccc(CNCc3nccs3)s2)cc1)C(=O)NO [Compound 359]	≤ 0.1	0.2 (≈ 0.413 µM)	0.4 (≈ 0.825 µM)	≤ 0.1	0.2 (≈ 0.413 µM)	0.4 (≈ 0.825 µM)	≤ 0.1	0.4 (≈ 0.825 µM)	0.2 (≈ 0.413 µM)	≤ 0.1
O=C(N[C@@H](CO)C(=O)NO)c1ccc(C#Cc2ccc(CNC3CCCC3)cc2)cc1 [Compound 148]	0.8 (≈ 1.9 µM)	≤ 0.1	25 (≈ 59.3 µM)	1.6 (≈ 3.8 µM)	25 (≈ 59.3 µM)	12.5 (≈ 29.7 µM)	1.6 (≈ 3.8 µM)	6.3 (≈ 14.9 µM)	12.5 (≈ 29.7 µM)	1.6 (≈ 3.8 µM)
CSC(C)(C)[C@H](NC(=O)c1ccc(C#Cc2ccc(CNC3CC3)s2)cc1)C(=O)NO [Compound 300]	0.4 (≈ 0.874 µM)	≤ 0.1	0.8 (≈ 1.75 µM)	≤ 0.1	0.8 (≈ 1.75 µM)	0.8 (≈ 1.75 µM)	0.4 (≈ 0.874 µM)	0.4 (≈ 0.874 µM)	0.4 (≈ 0.874 µM)	≤ 0.1
COCCNCc1ccc(C#Cc2ccc(C(=O)N[C@H](C(=O)NO)C(C)(C)SC)cc2)cc1 [C.237]	0.2 (≈ 0.426 µM)	≤ 0.1	3.1 (≈ 6.6 µM)	0.2 (≈ 0.426 µM)	1.6 (≈ 3.41 µM)	1.6 (≈ 3.41 µM)	0.4 (≈ 0.852 µM)	1.6 (≈ 3.41 µM)	1.6 (≈ 3.41 µM)	0.8 (≈ 1.7 µM)
CC(C)([C@H](NC(=O)c1ccc(C#Cc2ccc(CNCC3CCCO3)cc2)cc1)C(=O)NO)S(C)(=O)=O (stereo partly drawn) [Compound 273]	≤ 0.1	≤ 0.1	6.3 (≈ 11.9 µM)	0.8 (≈ 1.52 µM)	3.1 (≈ 5.88 µM)	6.3 (≈ 11.9 µM)	≤ 0.1	6.3 (≈ 11.9 µM)	3.1 (≈ 5.88 µM)	0.2 (≈ 0.379 µM)
CSC(C)(C)[C@H](NC(=O)c1ccc(C#Cc2ccc(CNCc3ccccc3)cc2)cc1)C(=O)NO [Compound 239]	0.2 (≈ 0.399 µM)	≤ 0.1	1.6 (≈ 3.19 µM)	0.2 (≈ 0.399 µM)	1.6 (≈ 3.19 µM)	0.8 (≈ 1.59 µM)	0.4 (≈ 0.797 µM)	0.8 (≈ 1.59 µM)	0.8 (≈ 1.59 µM)	0.4 (≈ 0.797 µM)
CC[C@H](C)[C@H](NC(=O)c1ccc(C#Cc2ccc(CN3CCCOCC3)cc2)cc1)C(=O)NO [Compound 186]	≤ 0.1	≤ 0.1	6.3 (≈ 13.6 µM)	1.6 (≈ 3.45 µM)	6.3 (≈ 13.6 µM)	3.1 (≈ 6.69 µM)	0.2 (≈ 0.431 µM)	1.6 (≈ 3.45 µM)	3.1 (≈ 6.69 µM)	0.4 (≈ 0.863 µM)
O=C(N[C@@H](CO)C(=O)NO)c1ccc(C#Cc2ccc(CNCc3nccs3)cc2)cc1 [Compound 213]	≤ 0.1	≤ 0.1	3.1 (≈ 6.88 µM)	0.8 (≈ 1.78 µM)	1.6 (≈ 3.55 µM)	3.1 (≈ 6.88 µM)	0.2 (≈ 0.444 µM)	1.6 (≈ 3.55 µM)	1.6 (≈ 3.55 µM)	0.4 (≈ 0.888 µM)
COc1ccc(CNCc2ccc(C#Cc3ccc(C(=O)N[C@H](C(=O)NO)C(C)(C)SC)cc3)cc2)cc1 [Compound 240]	0.2 (≈ 0.376 µM)	0.2 (≈ 0.376 µM)	1.6 (≈ 3.01 µM)	0.4 (≈ 0.752 µM)	1.6 (≈ 3.01 µM)	1.6 (≈ 3.01 µM)	0.4 (≈ 0.752 µM)	1.6 (≈ 3.01 µM)	1.6 (≈ 3.01 µM)	0.8 (≈ 1.5 µM)
